The values that follow are results of earlier work, collected in patent US20030065040A1, “Pharmaceutical compositions including sampatrilat dispersed in a lipoidic vehicle” (priority 2001, published 2003).

SMILES strings stand for the structures. Like-named read-outs stand apart in the source and are kept apart here.

The conditions of series [1]: dogs; reported to be as low as.
For series [2] the following is noted: man; reported to be as low as.

As for `CS(=O)(=O)N[C@@H](CCCCN)C(=O)NC[C@H](CC1(C(=O)N[C@@H](Cc2ccc(O)cc2)C(=O)O)CCCC1)C(=O)O` [Sampatrilat, sampatrilat], the results for the oral bioavailability in series [1] and in series [2] were 5% and 2%, respectively.
